Data reported in article PMC8069289 (Molecules, 2021).
Several values for one entry are separate records, joined by “and”; a condition that tells them apart may be missing. Equal entries are not always repeated.

How the values were obtained:
Drosophila melanogaster [1] = experiment: Antitoxicity assay, combined treatment with 0.15 M H2O2; conditions: 0.15 M hydrogen peroxide alone, positive toxicant control concurrent to each test substance
Procedure: Toxicity was assayed according to our standard protocols. CRB and SFRB were tested at five concentrations: 1, 4, 8.12, 32.5 and 130 mg/mL and 0.16, 0.625, 1.25, 5 and 20 mg/mL, respectively. […] Tested groups consisted of larvae fed with Drosophila Instant Medium (Formula 4–24, Carolina Biological Supply, Burlington, NC, USA) supplemented with the assessed compounds concentrations. Emerging adults of all groups were counted and toxicity was determined as the percentage of hatched individuals in each treatment compared with the negative control.

Drosophila melanogaster [2] = experiment: Genotoxicity, wing spot test (SMART); conditions: H2O2 0.15 M, positive control
Procedure: The wing spot test was performed to evaluate genotoxicity assays following the standard procedure [14]. Briefly, trans-heterozygous larvae for mwh and flr^3 genes were obtained by crossing four day-old virgin flr^3 females with mwh males in a 2:1 ratio. Four days after fertilization, females were allowed to lay eggs in fresh yeast medium (25 g yeast and 4 mL sterile distilled water) for 8 h in order to obtain synchronized larvae. After 72 h, larvae were collected, washed with distilled water, and clustered in groups of 100 individuals. […] Adult flies were collected and stored in 70% ethanol until the wings were removed and mounted on slides using Faure’s solution. Mutant spots were assessed in both dorsal and ventral surfaces of the wings in a bright light microscope at 400× magnification. The frequencies of each type of mutant clone per wing (single, large or twin spot) were compared with the concurrent negative control [43]. All inconclusive and positive results (p > 0.05) were analysed with the nonparametric U-test of Mann, Whitney and Wilcoxon (α = β = 0.05).

OO [H2O2, hydrogen peroxide, reference compound]
Survival (%) (Drosophila melanogaster [1]): 60% and 38.46% and 58% | Twin Spots m = 5 (Drosophila melanogaster [2]): 0 clones per wing | Large Simple Spots (>2 Cells) m = 5 (Drosophila melanogaster [2]; No. of spots in parentheses): 0.05 (2) clones per wing | Small Single Spots (1–2 Cells) m = 2 (Drosophila melanogaster [2]; No. of spots in parentheses): 0.375 (15) clones per wing | Total Spots m = 2 (Drosophila melanogaster [2]; No. of spots in parentheses): 0.425 (17) clones per wing
